According to patent publication US5177015A, “Onco-developmentally regulated α-N-acetylgalactosaminyltransferase” (Fred Hutchinson Cancer Research Centre, priority 1992, dated 1993):
Ends that are not written are not given here.

Tests used:
[1] = tested on: onco-developmentally regulated α-N-acetylgalactosaminyltransferase (HUH-7 homogenate); settings: 1 mM EDTA, 25 mM Tris buffer, pH 7.6
Protocol: In the present case, the requirement for metal ion for the onco-developmentally regulated α-N-acetylgalactosaminyltransferase was determined in 25 mM Tris buffer, pH 7.6, supplemented with 20 mM MnCl2, 10 mM MgCl2, 1 mM CaCl2 and combinations of two of these or 1 mM EDTA.
Hepatoma cell (HUH-7) homogenates and the synthetic and natural peptides set forth in the Table in Example 1 were prepared as in Example 1 and incubated as described in Example 1 using 25 mM Tris buffer, pH 7.6; supplemented with 20 mM MnCl2, 10 mM MgCl2, 1 mM CaCl2 and combinations of two of these or 1 mM EDTA.

[2] = tested on: α-N-acetylgalactosaminyltransferase in crude homogenates of human hepatoma cells (HUH-7); assay: Specific activity of α-N-acetylgalactosaminyltransferase toward various acceptors; assay type: biochemical; settings: 200 nmol acceptor, HUH-7 homogenate, 25 mM Tris, 10 mM MgCl2, 1 mM CaCl2, pH 7.6, 2 hrs at 37° C., FDC-6 immunoaffinity
Protocol: 8×10^7 hepatoma cells (HUH-7) cultured in serum-free medium (Dulbecco-Modified Eagles Medium) were homogenized in a Potter-Elvehjem homogenizer with 200 μl of distilled water. 300 μl of tris buffer solution, consisting of 25 mM tris, 10 mM MgCl2 and 1 mM CaCl2, pH 7.6, was added. 0.3 nmol UDP[^3 H]-GalNAc (specific activity 8.7 Ci/mmol, New England Nuclear Research Product) and 25 nmol UDP-GalNAc were added and incubated for 2 hrs at 37° C. The incubation mixture was centrifuged at 10,000 rpm for 30 min. Supernatant was applied onto a 0.5 ml Sepharose 4B precolumn, followed by a 0.5 ml FDC-6 immunoaffinity column containing 10 mg of purified FDC-6 antibody/ml as described by Matsuura, H. et al. ((1988) J. Biol. Chem. 263, 3314-3322). Immunoprecipitation using 200 μl of FDC-6 binding Sepharose 4B was also performed as described by Bigler R. D. et al ((1988) J. Immunol. 144 21). Supernatants were incubated for 1 hr at 20° C. The column or immunoprecipitate was washed with 1M NaCl in 50 mM Tris buffer, pH 7.4, and eluted with 2.5M potassium thiocyanate in the same buffer solution. The eluate and washings were pooled and aliquots were counted. The same incubation mixture without addition of synthetic peptides or FN was used as a control.

[3] = tested on: onco-developmentally regulated α-N-acetylgalactosaminyltransferase (hepatoma cell homogenate); assay: Effect of UDP-GalNAc concentration (Hanes-Woolf plot of saturation data); assay type: biochemical, human; settings: UDP-GalNAc 0.6 μM to 200 μM, 200 nmol TPI, read-out: apparent Km for UDP-GalNAc
Protocol: B. Effect of UDP-GalNAc concentration. A Hanes-Woolf plot of saturation data was obtained by varying UDP-GalNAc concentration from 0.6 μM to 200 μM. The reaction was conducted as described in Example 2 in the presence of 100 mg protein and 200 nmol TPI. The specific activity of UDP[^3 H]-GalNAc utilized was 4×10^6 cpm/nmol.
The apparent Km for UDP-GalNAc can be determined by generating a Hanes-Woolf plot of saturation data obtained by varying the UDP-GalNAc concentration at a constant cellular or tissue protein concentration and a constant substrate concentration. A preferred substrate for this assay is TPI.
A Hanes-Woolf plot of saturation data was obtained by varying UDP-GalNAc concentration from 0.6 μM to 200 μM. The reaction as conducted as described in Example 1 in the presence of 100 mg protein of hepatoma cell homogenate and 200 nmol TPI. The specific activity of the UDP[^3 H]-GalNAc used was 4×10^6 cpm/nmol. The reacted samples were also treated as described in Example 1.

[4] = tested on: onco-developmentally regulated α-N-acetylgalactosaminyltransferase; assay: Solubilization of the enzyme with detergents; assay type: biochemical, human
Excerpt: The particulate membrane fraction can be prepared according to the method of Holmes, E. H. et al. ((1985) J. Biol. Chem. 260, 7619-7627).

[5] = tested on: onco-developmentally regulated α-N-acetylgalactosaminyltransferase (HUH-7 homogenate); assay: Variation of incubation time (kinetics of α-GalNAc transfer to synthetic peptide); assay type: biochemical, human; settings: 200 nmol TPI, Tris pH 7.6, 37°, incubated 10 min. to 24 hours
Protocol: C. Variation of incubation time. The standard reaction mixture described in Example 1 using TPI was incubated for 10 min to 24 hr. open circles, with TPI; closed circles, without TPI (control).
In order to determine the kinetics of α-GalNAc transfer to synthetic peptide, a reaction mixture containing 12.5 μmol Tris, pH 7.6, 200 nmol TPI, 0.3 nmol UDP[^3 H]-GalNAc, 25 nmol UDP-GalNAc, 5 μmol MgCl2, 0.5 μmol CaCl2 and homogenized hepatoma cells (HUH-7) was incubated for 10 min. to 24 hours at 37°. A parallel control was run without TPI. At the end of the incubation periods, the samples were treated as described in Example 1.

**Q.** Which “Enzyme activity in the presence of EDTA” value [1] does the source give for `O=C(O)CN(CCN(CC(=O)O)CC(=O)O)CC(=O)O` [EDTA] here?
**A.** totally abolished

**Q.** “thr-pro-phe-val-thr-his-pro-gly-tyr-asp-thr-gly-asn-gly-ile-gln-leu-pro-gly-thr-ser-gly-gln-gln-pro-ser-val-gly-gln-gln (TPFVTHPGYDTGNGIQLPGTSGQQPSVGQQ) [TPQ]” was tested. Which “Activity (specific activity of the enzyme to the acceptor)” value [2] did it give?
**A.** 0.06 pmol/hr/mg protein

**Q.** Which Km [3] does the source give for `CC(=O)NC1C(OP(=O)(O)OP(=O)(O)OCC2OC(n3ccc(=O)[nH]c3=O)C(O)C2O)OC(CO)C(O)C1O` (centres unmarked) [UDP-GalNAc] here?
**A.** ~48 µM

**Q.** `C[C@H](CCC(=O)NCCC[N+](C)(C)CC(O)CS(=O)(=O)[O-])[C@H]1CC[C@H]2[C@@H]3[C@H](O)C[C@@H]4C[C@H](O)CC[C@]4(C)[C@H]3C[C@H](O)[C@]12C` (some centres unmarked) [CHAPSO, 3-(3-cholamidopropyldimethylammonio)-1-(20-hydroxy-1-propanesulfonate)] was tested. Which “Effect of solubilization with detergent on enzyme activity” value [4] did it give?
**A.** does not enhance enzyme activity

**Q.** With “thr-pro-phe-val-thr-his-pro-gly-tyr-asp-thr-gly-asn-gly-ile (TPFVTHPGYDTGNGI) [TPI]” as the compound, how does the “Time over which α-GalNAc transfer to synthetic peptide is linear” value [5] read?
**A.** about 2 hours

**Q.** And the “Activity (specific activity of the enzyme to the acceptor)” value [2]?
**A.** 0.11 pmol/hr/mg protein

**Q.** With VTHPGY [VTY, val-thr-his-pro-gly-tyr] as the compound, how does the “Activity (specific activity of the enzyme to the acceptor)” value [2] read?
**A.** 0.03 pmol/hr/mg protein

**Q.** Triton X-100 was tested. Which “Effect of solubilization with detergent on enzyme activity” value [4] did it give?
**A.** does not enhance enzyme activity
